Reference: patent publication US10610520B2, “Heterocyclic compound” (Takeda Pharmaceutical Company Limited, priority 2016, dated 2020)

The molecules below were run against T1, His-hMAGL (recombinant polyhistidine tagged human MAGL protein) (Homo sapiens, UniProt Q99685) (assay: Measurement of MAGL inhibitory activity (arachidonic acid production from 2-arachidonylglycerol, RapidFire-mass spectrometry)). Details: MAGL inhibitory rate, test compound 10 μM, 60 min preincubation, 2-arachidonylglycerol substrate.
T1 construct: made in house; host or cells: E. coli BL21(DE3)
T1 sequence (Q99685 1-303): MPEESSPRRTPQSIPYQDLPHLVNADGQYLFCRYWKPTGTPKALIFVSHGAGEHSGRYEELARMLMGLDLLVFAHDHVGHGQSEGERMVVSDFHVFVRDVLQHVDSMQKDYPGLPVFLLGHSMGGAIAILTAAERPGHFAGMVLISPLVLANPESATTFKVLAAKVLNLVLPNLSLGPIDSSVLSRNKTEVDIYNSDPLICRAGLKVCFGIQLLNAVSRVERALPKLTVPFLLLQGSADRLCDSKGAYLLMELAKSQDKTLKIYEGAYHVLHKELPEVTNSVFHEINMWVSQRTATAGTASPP
Format: biochemical
Method in brief: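 Arachidonic acid formed was quantified by online solid-phase extraction and triple-quadrupole MS in negative SRM mode against a d8 internal standard. Reaction: recombinant His-hMAGL (7.5 ng/mL, pH 7.5 Tris buffer with Triton X-100 and BSA) plus 2-AG (5 μL of 150 μM stock) for 10 min at room temperature, quenched with 2% formic acid. Percent inhibition corrected for enzyme-free background.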

Row | Compound | inhibition at 10 µM [%]
1 | Cc1cc(C(F)(F)F)cc2sc(C(=O)N3CCC4(COC(=O)N4)C3)c(Cl)c12 (stereo not shown) [Example 341, 7-((3-chloro-4-methyl-6-(trifluoromethyl)-1-benzothiophen-2-yl)carbonyl)-3-oxa-1,7-diazaspiro[4.4]nonan-2-one] | 100
2 | O=C1NC2(CO1)CN(C(=O)c1sc3cc(F)cc(F)c3c1Cl)C2 [Example 362, 2-((3-chloro-4,6-difluoro-1-benzothiophen-2-yl)carbonyl)-7-oxa-2,5-diazaspiro[3.4]octan-6-one] | 100
3 | O=C1CCC2(CN(C(=O)c3ccc(-c4cccc(OCC(F)(F)F)c4)cc3)C2)N1 [Example 170, 2-((3′-(2,2,2-trifluoroethoxy)biphenyl-4-yl)carbonyl)-2,5-diazaspiro[3.4]octan-6-one] | 99
4 | O=C1NC2(CO1)CN(C(=O)c1sc3cc(OC(F)(F)F)c(F)cc3c1Cl)C2 [Example 280, 2-((3-chloro-5-fluoro-6-(trifluoromethoxy)-1-benzothiophen-2-yl)carbonyl)-7-oxa-2,5-diazaspiro[3.4]octan-6-one] | 101
5 | Cc1ccc(-c2ccc3c(Cl)c(C(=O)N4CC5(CCC(=O)N5)C4)sc3c2)cc1 [Example 184, 2-((3-chloro-6-(4-methylphenyl)-1-benzothiophen-2-yl)carbonyl)-2,5-diazaspiro[3.4]octan-6-one] | 99
6 | O=C1CCC2(CN(C(=O)c3ccc4scc(-c5ccc(F)cc5)c4c3)C2)N1 [Example 175, 2-((3-(4-fluorophenyl)-1-benzothiophen-5-yl)carbonyl)-2,5-diazaspiro[3.4]octan-6-one] | 88
7 | Cc1cc(CO[C@H]2C[C@@H](C(=O)N3CC4(COC(=O)N4)C3)C2)ccc1Cl [Example 357, 2-((cis-3-((4-chloro-3-methylbenzyl)oxy)cyclobutyl)carbonyl)-7-oxa-2,5-diazaspiro[3.4]octan-6-one] | 100
8 | O=C1CCC2(CN(C(=O)c3ccc(-c4cc(F)c(F)cc4F)cc3)C2)N1 [Example 70, 2-((2′,4′,5′-trifluorobiphenyl-4-yl)carbonyl)-2,5-diazaspiro[3.4]octan-6-one] | 97
9 | O=C1CCC2(CN(C(=O)c3sc4cc(-c5cc(Cl)ccc5F)ccc4c3Cl)C2)N1 [Example 222, 2-((3-chloro-6-(5-chloro-2-fluorophenyl)-1-benzothiophen-2-yl)carbonyl)-2,5-diazaspiro[3.4]octan-6-one] | 99
10 | CC1(c2cccc(-c3ccc(C(=O)N4CC5(COC(=O)N5)C4)cc3F)c2)CC1 [Example 274, 2-((2-fluoro-3′-(1-methylcyclopropyl)biphenyl-4-yl)carbonyl)-7-oxa-2,5-diazaspiro[3.4]octan-6-one] | 101
11 | Cc1cc(F)ccc1-c1ccc2c(Cl)c(C(=O)N3CC4(CCC(=O)N4)C3)sc2c1 [Example 209, 2-((3-chloro-6-(4-fluoro-2-methylphenyl)-1-benzothiophen-2-yl)carbonyl)-2,5-diazaspiro[3.4]octan-6-one] | 99
12 | O=C1CCC2(CN(C(=O)c3sc4cc(-c5ccc(OC(F)(F)F)cc5)ccc4c3Cl)C2)N1 [Example 200, 2-((3-chloro-6-(4-(trifluoromethoxy)phenyl)-1-benzothiophen-2-yl)carbonyl)-2,5-diazaspiro[3.4]octan-6-one] | 94
13 | O=C1NC2(CO1)CN(C(=O)[C@H]1C[C@@H](OCc3ccc(C(F)(F)F)c(Cl)c3)C1)C2 [Example 359, 2-((cis-3-((3-chloro-4-(trifluoromethyl)benzyl)oxy)cyclobutyl)carbonyl)-7-oxa-2,5-diazaspiro[3.4]octan-6-one] | 99
14 | O=C1CCC2(CN(C(=O)c3ccc(-c4ccc5cnsc5c4)cc3)C2)N1 [Example 73, 2-(4-(1,2-benzothiazol-6-yl)benzoyl)-2,5-diazaspiro[3.4]octan-6-one] | 98
15 | O=C1COCC2(CN(C(=O)c3sc4cc(C(F)(F)F)ccc4c3Cl)C2)N1 [Example 242, 2-((3-chloro-6-(trifluoromethyl)-1-benzothiophen-2-yl)carbonyl)-8-oxa-2,5-diazaspiro[3.5]nonan-6-one] | 99

More lines, now with the values ahead:

Row | inhibition at 10 µM [%] | Compound
16 | 101 | O=C1NC2(CO1)CN(C(=O)c1sc3cc(OCC(F)(F)F)ccc3c1Cl)C2 [Example 287, 2-((3-chloro-6-(2,2,2-trifluoroethoxy)-1-benzothiophen-2-yl)carbonyl)-7-oxa-2,5-diazaspiro[3.4]octan-6-one]
17 | 100 | O=C1NC2(CO1)CN(C(=O)N1CCC(COc3ccc(F)cc3Cl)CC1)C2 [Example 240, 2-((4-((2-chloro-4-fluorophenoxy)methyl)piperidin-1-yl)carbonyl)-7-oxa-2,5-diazaspiro[3.4]octan-6-one]
18 | 99 | O=C1CCC2(CN(C(=O)c3sc4cc(-c5cccc(Cl)c5)ccc4c3Cl)C2)N1 [Example 190, 2-((3-chloro-6-(3-chlorophenyl)-1-benzothiophen-2-yl)carbonyl)-2,5-diazaspiro[3.4]octan-6-one]
19 | 100 | O=C1NC2(CO1)CN(C(=O)[C@H]1C[C@H](OCc3ccc(Cl)cc3Cl)C1)C2 [Example 348, 2-((trans-3-((2,4-dichlorobenzyl)oxy)cyclobutyl)carbonyl)-7-oxa-2,5-diazaspiro[3.4]octan-6-one]
20 | 85 | COc1ccc(F)c(-c2ccc(C(=O)N3CC4(CCC(=O)N4)C3)cc2)c1F [Example 78, 2-((2′,6′-difluoro-3′-methoxybiphenyl-4-yl)carbonyl)-2,5-diazaspiro[3.4]octan-6-one]
21 | 100 | O=C1NC2(CO1)CN(C(=O)c1sc3c(C(F)(F)F)cccc3c1OC(F)F)C2 [Example 272, 2-((3-(difluoromethoxy)-7-(trifluoromethyl)-1-benzothiophen-2-yl)carbonyl)-7-oxa-2,5-diazaspiro[3.4]octan-6-one]
22 | 100 | O=C1NC2(CCN(C(=O)c3sc4c(F)c(C(F)(F)F)ccc4c3Cl)C2)CO1 (stereo not shown) [Example 342, 7-((3-chloro-7-fluoro-6-(trifluoromethyl)-1-benzothiophen-2-yl)carbonyl)-3-oxa-1,7-diazaspiro[4.4]nonan-2-one]
23 | 101 | O=C1CCC2(CN(C(=O)N3CCC(Cc4ccc(F)cc4F)CC3)C2)N1 [Example 98, 2-((4-(2,4-difluorobenzyl)piperidin-1-yl)carbonyl)-2,5-diazaspiro[3.4]octan-6-one]
24 | 90 | O=C1CCC2(CN(C(=O)c3ccc(-c4ccccc4)c(Cl)c3)C2)N1 [Example 119, 2-((2-chlorobiphenyl-4-yl)carbonyl)-2,5-diazaspiro[3.4]octan-6-one]
25 | 100 | Cc1cc(CO[C@H]2C[C@H](C(=O)N3CC4(COC(=O)N4)C3)C2)ccc1Cl [Example 358, 2-((trans-3-((4-chloro-3-methylbenzyl)oxy)cyclobutyl)carbonyl)-7-oxa-2,5-diazaspiro[3.4]octan-6-one]
26 | 100 | O=C1CCC2(CN(C(=O)c3sc4cc(-c5ccc(F)c(F)c5)ccc4c3Cl)C2)N1 [Example 216, 2-((3-chloro-6-(3,4-difluorophenyl)-1-benzothiophen-2-yl)carbonyl)-2,5-diazaspiro[3.4]octan-6-one]
27 | 93 | COc1ccc(Cl)c(-c2ccc(C(=O)N3CC4(CCC(=O)N4)C3)cc2)c1 [Example 82, 2-((2′-chloro-5′-methoxybiphenyl-4-yl)carbonyl)-2,5-diazaspiro[3.4]octan-6-one]
28 | 98 | O=C1CCC2(CN(C(=O)c3cc4cc(OC(F)(F)F)ccc4s3)C2)N1 [Example 252, 2-((5-(trifluoromethoxy)-1-benzothiophen-2-yl)carbonyl)-2,5-diazaspiro[3.4]octan-6-one]
29 | 92 | O=C1CCC2(CN(C(=O)c3ccc(-c4ccccc4)cc3)C2)N1 [Example 12, 2-(biphenyl-4-ylcarbonyl)-2,5-diazaspiro[3.4]octan-6-one]
30 | 100 | Cc1ccc(CO[C@H]2C[C@@H](C(=O)N3CC4(COC(=O)N4)C3)C2)cc1Cl [Example 356, 2-((cis-3-((3-chloro-4-methylbenzyl)oxy)cyclobutyl)carbonyl)-7-oxa-2,5-diazaspiro[3.4]octan-6-one]
31 | 100 | O=C1NC2(CO1)CN(C(=O)c1sc3cc(OC(F)(F)F)c(Cl)cc3c1Cl)C2 [Example 298, 2-((3,5-dichloro-6-(trifluoromethoxy)-1-benzothiophen-2-yl)carbonyl)-7-oxa-2,5-diazaspiro[3.4]octan-6-one]
32 | 100 | O=C1NC2(CCN(C(=O)c3sc4c(F)c(OC(F)(F)F)cc(F)c4c3Cl)C2)CO1 (stereo not shown) [Example 336, 7-((3-chloro-4,7-difluoro-6-(trifluoromethoxy)-1-benzothiophen-2-yl)carbonyl)-3-oxa-1,7-diazaspiro[4.4]nonan-2-one]
33 | 89 | O=C1CCC2(CN(C(=O)c3ccc4nc(-c5ccc(F)cc5)oc4c3)C2)N1 [Example 13, 2-((2-(4-fluorophenyl)-1,3-benzoxazol-6-yl)carbonyl)-2,5-diazaspiro[3.4]octan-6-one]

Same assay, conditions: MAGL inhibitory rate, test compound 10 μM, 60 min preincubation, 2-arachidonylglycerol substrate; 10 µM

Row | % inhibition (10 μM) [%] | Compound
34 | 96 | Cc1c(OC(F)(F)F)ccc2c(Cl)c(C(=O)N3CCC4(COC(=O)N4)C3)sc12 (stereo not shown) [Example 330, 7-((3-chloro-7-methyl-6-(trifluoromethoxy)-1-benzothiophen-2-yl)carbonyl)-3-oxa-1,7-diazaspiro[4.4]nonan-2-one]
